Experiments:
[1] = system: adjuvant arthritis (modified Freund's adjuvant); test: Adjuvant Arthritis - Therapeutic; format: in vivo, Male Sprague-Dawley rats; settings: for Body Weights % Increase / Bone Resorption % Inhibition / Paw Volume % Decrease: 2 x/day, days 20 through 28
Protocol: (§1) Adjuvant Arthritis Methodology
(§2) Male Sprague-Dawley rats weighing 167-170 gm are allowed to acclimate to the laboratory for at least 3 days. Ten rats are then assigned to the healthy control group and the remaining rats are assigned to the arthritic group. On day 0, the rats in the arthritic group are injected subcutaneously in the middle of their tail with a modified Freund's adjuvant (MFA) at a dosage of 0.05 ml/100 gm body weight. The MFA is made by grinding Mycobacterium butyricum (Mb) and then mixing with mineral oil at a concentration of 10 mg Mb/ml of mineral oil. This is mixed in an Omni mixer for 45 minutes.
Paw volumes and body weights are determined on days -1, 6, 13, 19, 26, and 29. On day 19, paw volume changes from day -1 are determined for the arthritic group. The rats with paw volume changes≥0.50 ml but ≤2.50 ml are randomized by paw volume changes into the treatment groups on day 20. […] On day 29, two representative rats from each treatment group are photographed, paw volumes and body weights are determined, and then the rats are sacrificed with CO2 and x-rays are taken.
(§3) The radiographs are used to grade bone resorption. Bone resorption is graded in 20 areas of the fore and hind paws. The areas for grading on the hind paw are: distal femur end, proximal tibia and tibula, distal end of the tibia and the small bone under the tibia, calcaneous, tarsus, and metatarsus. The areas on the fore paws are: radius, ulna, carpus, and metacarpus. Each area is given a grade of 0 (no resorption) or 1 (resorption) for possible grade of 20 of each animal.

[2] = system: adjuvant arthritis (modified Freund's adjuvant); test: Adjuvant Arthritis - Immunomodulatory; format: in vivo, Male Sprague-Dawley rats; settings: 15 mg/kg, 2 x/day, day -1 through day 7
Protocol: as §1, §2
Paw volumes and body weights are determined on days -1, 6, 13, 19, 26, and 29. On day 19, paw volume changes from day -1 are determined for the arthritic group. The rats with paw volume changes≥0.50 ml but ≤2.50 ml are randomized by paw volume changes into the treatment groups on day 20. On days 20 through 28, the rats are orally dosed twice a day (once a day on weekends). On day 29, two representative rats from each treatment group are photographed, paw volumes and body weights are determined, and then the rats are sacrificed with CO2 and x-rays are taken.
as §3
The same procedures as for the therapeutic, except the rats are randomly assigned to the treatment groups including the healthy control group by body weights on day -2. Paw volumes and body weights are determined on days -1, 6, 13, 20, and 27. The rats are treated from day -1 through day 7. The rats are sacrificed on day 28 and x-rayed. The radiographs are graded as above using a severity scale from 0 (no resorption) to 3 (severe resorption).

[3] = oral analgesic activity; format: in vivo; settings: "peripheral" type, compared to aspirin
Protocol: In order to determine and assess pharmacological activity, testing of these compounds in animals is carried out using various assays known to those skilled in the art. […] Examples of such known tests include the carrageenan rat edema test, the oxazolone-induced inflamed mouse ear test, and the arachidonic acid-induced inflamed mouse ear test. Anti-pyretic acitivity may be tested using art-known rat models, and analgesic acitivty may be tested in art-known models such as the acetylcholine model in mice, the Randall-Selitto model in rats, and the hot-plate test in mice. Another useful art-known test is the adjuvant arthritis test which is a useful model for assessing anti-inflammatory activity and anti-resorptive activity in a chronic, rather than acute, model.

C#CCCCC(=O)c1cc(C(C)(C)C)c(O)c(C(C)(C)C)c1 [Compound 11, 4-(5'-hexynoyl)-2,6-di-t-butylphenol]
Body Weights % Increase ([1]; 5 mg/kg, oral): 36%
Bone Resorption % Inhibition ([1]; 5 mg/kg, oral): 37%
Paw Volume % Decrease ([1]; 5 mg/kg, oral): 75%
Body Weights % Increase ([1]; 15 mg/kg, oral): 34%
Bone Resorption % Inhibition ([1]; 15 mg/kg, oral): 50%
Paw Volume % Decrease ([1]; 15 mg/kg, oral): 83%
decrease of bone resorption in arthritic animal models ([1]; arthritic animal models): ability to decrease bone resorption
oral anti-arthritic activity in a rat adjuvant arthritis model ([1]; oral, dosed therapeutically): anti-arthritic activity
Body Weights % Increase [2]: 30%
Paw Volume % Decrease [2]: 48%
Bone Resorption % Inhibition ([2]; severity scale 0-3): 57%
oral analgesic activity [3]: superior to aspirin

Reference: patent publication US4708966A, “Novel anti-inflammatory agents, pharmaceutical compositions and methods for reducing inflammation” (The Procter & Gamble Company, priority 1986, dated 1987)
